# Several values for one entry are separate records, joined by “and”; a condition that tells them apart may be missing. Equal values may be shown once. Read-outs that look alike come from different tables or passages of the source.
# Assays:
# [1] = system: cerulein-induced pancreatitis in PRSS1^R122H mice; details: cited from earlier work
# [2] = system: transmembrane serine protease 2; details: cited from earlier work
# trypsin = details: cited from earlier work
# [3] = system: cerulein-induced pancreatitis in T7K24R mice; assay: Cerulein-induced pancreatitis in T7K24R mice; format: in vivo, mouse
# Procedure: Pancreatitis was induced in T7K24R mice with 8 hourly intraperitoneal injections of the secretagogue peptide cerulein used in a dose of 50 μg/kg. Cerulein (catalog number C9026, MilliporeSigma) was dissolved in sterile normal saline at 10 μg/mL concentration. Mice were sacrificed 1, 24, 48, 72, or 96 hours from the first cerulein injection, as indicated, and the pancreas and blood were harvested. Details of histological analysis and measurement of plasma amylase (4 μL assayed) were reported previously ([29]–[31]).
# (§1) Control mice were given gavage of the vehicle solution (Captisol; see below) or regular chow.
# (§2) Captisol (β-cyclodextrin sulfobutyl ethers, sodium salts, lot number NC-04A-180185) was obtained from Cydex Pharmaceuticals (through Thermo Fisher Scientific) and was dissolved in sterile normal saline (3.5 g in 10 mL). […] The mixture was then compressed into pellets using the barrel of a 10 mL plastic syringe and a plunger. The prodrug-containing pellets were allowed to dry at 24°C for 2 days and stored at 4°C until use.
# [4] = system: spontaneous pancreatitis in T7D23A mice; assay: Spontaneous pancreatitis in T7D23A mice, oral gavage; format: in vivo, mouse
# Text: (§3) The generation and properties of the T7D23A and T7K24R mice carrying trypsinogen mutations were described recently ([29], [30]). Heterozygous T7D23A and homozygous T7K24R mice were used. Protocols for genotyping have been reported earlier ([29], [30]). C57BL/6N mice were purchased from Charles River Laboratories or produced in our breeding facility from the same stock. Both male and female mice were studied.
# as §1, §2
# [5] = system: spontaneous pancreatitis in T7D23A mice; assay: Spontaneous pancreatitis in T7D23A mice, feeding with drug-containing chow; format: in vivo, mouse
# Text: as §3, §1, §2
# T7D23A and T7K24R mice = assay: Safety observations in treated mice; format: in vivo, mouse
# Text: as §1
# [6] = Estimation of absorbed dabigatran etexilate; set-up: species or system mouse
# [7] = humans; independent of dose, not influenced by food; cited from earlier work
# [8] = single oral gavage 200 mg/kg 30 minutes after last cerulein injection, 96 hours
# [9] = single oral gavage 200 mg/kg, 15 treated mice
# [10] = gavage 1 × 100, 2 × 100 or 1 × 200 mg/kg daily for 2 weeks
smiles,measurement,setting,value
CN(C)C(=O)COC(=O)Cc1ccc(OC(=O)c2ccc(NC(=N)N)cc2)cc1 [camostat],therapeutic activity,[1]; 200 mg/kg alone,only a partial effect
same,inhibition of transmembrane serine protease 2,[2],strong inhibitors
COc1ccc(-n2nc(C(N)=O)c3c2C(=O)N(c2ccc(N4CCCCC4=O)cc2)CC3)cc1 [apixaban],therapeutic activity,[1]; 100 mg/kg alone,no therapeutic activity whatsoever
same,therapeutic activity,[1]; apixaban 100 mg/kg combined with camostat 200 mg/kg,highly effective
same,trypsin-inhibitory activity,trypsin,devoid of trypsin-inhibitory activity
CCCCCCOC(=O)NC(=N)c1ccc(NCc2nc3cc(C(=O)N(CCC(=O)OCC)c4ccccn4)ccc3n2C)cc1 [dabigatran etexilate],"body weight, start versus end of experiment",[3]; [8],no change in body weight
same,pancreas weight versus vehicle-treated mice with pancreatitis,[3]; [8],significantly higher
same,share of drug-treated mice with complete protective effect (histology),[3]; [9],~50%
same,share of mice with significant yet incomplete effect (30%–50% normal histology),[3]; [9],about 20%
same,plasma amylase activity in a subset of treated mice (4 of 15),"[3]; single oral gavage 200 mg/kg, 4 days after induction",more than 3 fold
same,proportion of intact acini versus vehicle-treated group,"[3]; single oral gavage 200 mg/kg, histology at 96 hours",significantly higher
same,"intact acini on pancreas sections, individual mice with elevated plasma amylase","[3]; single oral gavage 200 mg/kg, the 4 mice with elevated amylase, 200 mg/kg",45% and 13% and 15% and 35%
same,"intact acini per visual field, treated versus untreated",[4]; [10],no appreciable difference
same,pancreas weight,[4]; [10],did not improve
same,plasma amylase levels relative to untreated T7D23A controls,[4]; [10],significantly lower
same,body weight gain,"[4]; gavage 1 × 100, 2 × 100 or 1 × 200 mg/kg daily for 2 weeks, 3 to 5 weeks of age",unaffected by gavage treatment
same,effect on spontaneous pancreatitis,[4]; intragastric gavage for 2 weeks,did not ameliorate
same,effect on spontaneous pancreatitis,[5]; chow with 10 mg/g for 1 week,did not prevent or improve
same,"intact acini, pancreatitis severity",[5]; chow with 10 mg/g for 1 week,no effect
same,plasma amylase activities,"[5]; chow with 10 mg/g for 1 week, all 4 groups",comparable
same,"pancreas weight, treated versus untreated","[5]; chow with 10 mg/g for 1 week, both strains (C57BL/6N and T7D23A)",small increase
same,body weight gain,"[5]; chow with 10 mg/g, 21 to 28 days of age, C57BL/6N and T7D23A",gained weight similarly
same,"bleeding, morbidity, mortality",T7D23A and T7K24R mice; gavage 100 or 200 mg/kg or chow 10 mg/g,"no bleeding, morbidity, or mortality were observed"
same,"hematoxylin-eosin sections of liver, intestine, and kidney",T7D23A and T7K24R mice; mice treated with dabigatran etexilate or vehicle,no signs of organ damage
same,daily dose of absorbed dabigatran etexilate,"[6]; 10 mg prodrug/g chow, about 4 g chow per 24 hours, estimated",2.6 mg
same,systemically absorbed single dose,"[6]; 100 mg/kg intragastric gavage, 20 g mouse, estimated from human bioavailability",0.13 mg
same,oral bioavailability,[7],around 6.5%
same,effect on cerulein-induced pancreatitis,[1]; PRSS1^R122H transgenic mice,markedly improved
N=C(N)c1ccc2cc(OC(=O)c3ccc(N=C(N)N)cc3)ccc2c1 [nafamostat],inhibition of transmembrane serine protease 2,[2],strong inhibitors

# From PMC9675574 (JCI Insight, 2022)
